Paper PMC7614683, “A small molecule PI3Kα activator for cardioprotection and neuroregeneration” (Nature, 2023)

Legend:
PI3Kα-WT A549 cells = experiment: TIRF microscopy of PIP3 reporter, PI3Kα-WT A549; type: cell-based, human; conditions: 1938, then BYL719 0.5 μM
Experimental: Phosphoinositide reporters used were GFP-PH-ARNO^I303Ex2 (PIP3 reporter[41]) and mCherry-cPH-TAPP1x3 (PI(3,4)P2 reporter[41]). TIRF microscopy allows selective imaging of the small cell volume, including the plasma membrane, directly adjacent to the coverslip onto which cells have been seeded. HeLa or A549 cells were seeded in Matrigel-coated (Corning #354230; diluted in Opti-MEM at 1:50) 8-well chamber slides (glass bottom, 1.55 refractive index; Thermo Fisher Scientific #155409) at a density of 5,000 cells/well. […]
Image analyses of total reporter intensities were performed with the Fiji open source image analysis package. The region of interest (ROI) corresponding to the footprint of the individual cell across time points were defined using minimal intensity projection to select only pixels present across all time points, following prior subtraction of camera noise (rolling ball method, radius = 500 pixels) and xy drift correction, intensity levels over time were measured. […] All other quantifications were performed using the open source software R/RStudio. The values plotted in Fig. 3d (iii) represent mean±SEM, following signal scaling to minimum and maximum values of the normalised fluorescence intensity for each time point (Fn(t)). […]

PI3Kα = target: T1, PI3Kα (Homo sapiens, UniProt P42336); experiment: FRET membrane binding assay; type: biochemical; conditions: compared with pY
T1 construct: Full-length human p110α was expressed either in a complex with full-length human p85α (for HTS, biochemistry and HDX-MS); 6xHis tag followed by TEV protease site (N); host or cells: Spodoptera frugiperda Sf9, baculovirus
Experimental: Membrane binding assays were performed as previously published. Briefly, liposomes were prepared with 5% (w/v) brain PtdIns(4,5)P2, 20% brain phosphatidylserine, 35% brain phosphatidylethanolamine, 15% brain phosphatidylcholine, 10% cholesterol, 5% sphingomyelin, and 10% dansyl-phosphatidylserine (Avanti Polar Lipids). PI3Kα was used at a final concentration of 0.5 μM. Protein solutions were preincubated with 10 μM pY or compounds for 10 min before addition of liposomes. Liposomes were used at a final concentration of 50 μg/ml. The reaction mixture contained 5 μl enzyme, 2 μl compound and 3 μl liposomes, all diluted in 30 mM HEPES, 50 mM NaCl, pH 7.4. The reaction was allowed to proceed for 10 min at room temperature with 384 black-polystyrene plates (Corning #3544) on an orbital shaker at 200 rpm. FRET signals were measured using PHERAStar (BMG) with a 280 nm excitation filter with 350 nm and 520 nm emission filters to measure Dansyl-PS FRET emissions, respectively. FRET signal shown as I-I0, where I is the intensity at 520 nm, and I0 is the intensity at 520 nm for the solution in the absence of protein.

T1 sequence (P42336 whole entry): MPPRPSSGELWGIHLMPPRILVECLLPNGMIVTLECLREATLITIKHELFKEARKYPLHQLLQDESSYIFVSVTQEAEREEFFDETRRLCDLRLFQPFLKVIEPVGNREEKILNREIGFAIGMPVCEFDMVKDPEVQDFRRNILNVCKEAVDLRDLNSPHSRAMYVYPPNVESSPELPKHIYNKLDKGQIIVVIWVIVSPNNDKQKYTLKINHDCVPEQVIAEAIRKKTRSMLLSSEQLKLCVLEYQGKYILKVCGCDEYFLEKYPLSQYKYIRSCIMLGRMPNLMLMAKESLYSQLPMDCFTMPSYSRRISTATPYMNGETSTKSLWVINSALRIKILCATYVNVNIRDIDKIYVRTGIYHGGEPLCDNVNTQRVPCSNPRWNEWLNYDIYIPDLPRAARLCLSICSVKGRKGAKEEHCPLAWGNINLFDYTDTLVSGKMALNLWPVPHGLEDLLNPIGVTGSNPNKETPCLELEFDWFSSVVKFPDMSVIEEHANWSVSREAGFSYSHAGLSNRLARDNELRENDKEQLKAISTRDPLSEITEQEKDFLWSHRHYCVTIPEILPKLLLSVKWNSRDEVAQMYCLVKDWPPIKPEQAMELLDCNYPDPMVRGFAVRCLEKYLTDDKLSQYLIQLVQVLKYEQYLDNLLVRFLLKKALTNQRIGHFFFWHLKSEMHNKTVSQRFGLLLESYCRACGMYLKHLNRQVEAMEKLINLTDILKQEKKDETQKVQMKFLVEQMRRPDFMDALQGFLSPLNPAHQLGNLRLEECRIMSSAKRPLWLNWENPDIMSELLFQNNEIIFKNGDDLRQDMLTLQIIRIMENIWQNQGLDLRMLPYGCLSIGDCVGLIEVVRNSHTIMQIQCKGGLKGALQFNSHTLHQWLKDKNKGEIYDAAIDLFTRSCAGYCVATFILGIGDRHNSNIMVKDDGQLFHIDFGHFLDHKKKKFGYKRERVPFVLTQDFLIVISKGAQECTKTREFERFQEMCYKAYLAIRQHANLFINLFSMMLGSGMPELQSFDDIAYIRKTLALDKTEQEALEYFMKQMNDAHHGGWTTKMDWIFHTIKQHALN
T1 sequence (P27986 whole entry partner): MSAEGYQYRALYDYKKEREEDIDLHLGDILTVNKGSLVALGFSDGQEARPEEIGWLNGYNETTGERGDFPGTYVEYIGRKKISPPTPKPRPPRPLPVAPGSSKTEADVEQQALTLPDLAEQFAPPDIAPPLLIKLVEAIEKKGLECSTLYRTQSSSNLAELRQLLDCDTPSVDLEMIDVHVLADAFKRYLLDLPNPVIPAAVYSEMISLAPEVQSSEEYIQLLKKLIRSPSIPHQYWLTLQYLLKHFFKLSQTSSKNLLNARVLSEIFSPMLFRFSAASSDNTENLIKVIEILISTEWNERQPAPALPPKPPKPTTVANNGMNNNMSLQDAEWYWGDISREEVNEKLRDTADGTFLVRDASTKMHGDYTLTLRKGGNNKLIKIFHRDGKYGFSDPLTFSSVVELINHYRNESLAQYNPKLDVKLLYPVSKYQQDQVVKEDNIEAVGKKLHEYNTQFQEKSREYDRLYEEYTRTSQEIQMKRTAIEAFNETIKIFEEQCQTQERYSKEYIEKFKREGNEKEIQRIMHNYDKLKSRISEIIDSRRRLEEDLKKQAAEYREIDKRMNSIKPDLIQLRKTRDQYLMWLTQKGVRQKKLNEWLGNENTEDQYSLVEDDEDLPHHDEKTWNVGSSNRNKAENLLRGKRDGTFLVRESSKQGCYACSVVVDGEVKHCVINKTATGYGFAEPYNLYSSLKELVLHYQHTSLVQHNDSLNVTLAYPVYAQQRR

## CCN1CCN(c2ccc(Nc3cc(Nc4cccc5c4N(C(C)=O)CC5)ccn3)cc2)CC1 [Compound 1938]
PI3Kα-WT A549 cells
  plasma membrane PIP3 (biosensor): acute plasma membrane-associated PIP3 production
PI3Kα
  PI3Kα binding to lipid membranes (FRET signal), maximum level: about half of that induced by pY
